Data taken from ChEMBL document CHEMBL1201862, “PubChem BioAssay data set” (2004).
“And” between values parts separate entries of the source, which are not always exact repeats. Equal entries are not always repeated. The source made the active and inactive calls.

Columns and labels:
[1] = target: T1, Bcl-2-like protein 10 (Homo sapiens, UniProt Q9HD36); assay: Biochemical TR3 FP assay of Bcl-B inhibitor potency, EC50 (AID 1243); format: functional
T1 sequence (Q9HD36 whole entry): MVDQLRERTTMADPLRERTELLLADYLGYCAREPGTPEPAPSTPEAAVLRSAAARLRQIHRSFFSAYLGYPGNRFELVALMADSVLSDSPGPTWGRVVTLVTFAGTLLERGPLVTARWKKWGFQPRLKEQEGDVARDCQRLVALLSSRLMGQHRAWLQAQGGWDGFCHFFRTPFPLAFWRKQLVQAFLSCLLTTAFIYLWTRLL

[2] = target: NS3 (Hepatitis C virus, UniProt A3EZJ3); assay: HCV NS3 helicase inhibitor potency, dose response, biochemical, fluorescence polarization, ChemBridge library (AID 743264)
[3] = target: T2, Estrogen receptor (Homo sapiens, UniProt P03372); assay: potentiators of ERα–SRC-1 coactivator binding, dose response, biochemical, TR-FRET, ERα LBD (AID 737)
T2 sequence (P03372 whole entry): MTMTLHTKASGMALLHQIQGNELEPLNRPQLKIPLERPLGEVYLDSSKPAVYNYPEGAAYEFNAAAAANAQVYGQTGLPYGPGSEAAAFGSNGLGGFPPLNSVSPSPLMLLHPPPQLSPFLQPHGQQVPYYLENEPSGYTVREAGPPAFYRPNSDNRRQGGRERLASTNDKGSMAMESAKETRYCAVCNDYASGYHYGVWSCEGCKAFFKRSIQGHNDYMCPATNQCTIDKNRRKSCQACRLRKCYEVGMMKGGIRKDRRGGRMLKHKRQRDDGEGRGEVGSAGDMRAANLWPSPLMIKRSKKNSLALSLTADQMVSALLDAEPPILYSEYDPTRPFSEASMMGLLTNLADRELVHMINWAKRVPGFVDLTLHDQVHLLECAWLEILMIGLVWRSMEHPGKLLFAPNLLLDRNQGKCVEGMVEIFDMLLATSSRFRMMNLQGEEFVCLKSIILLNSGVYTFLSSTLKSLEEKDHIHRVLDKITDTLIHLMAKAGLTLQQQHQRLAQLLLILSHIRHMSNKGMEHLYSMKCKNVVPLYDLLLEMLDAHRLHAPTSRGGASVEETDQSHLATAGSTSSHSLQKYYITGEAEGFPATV

[4] = target: T3, Heat shock 70 kDa protein 1A (Homo sapiens, UniProt P0DMV8); assay: Hsp70 inhibitors, biochemical, TR-FRET (AID 786)
[5] = target: T1, Bcl-2-like protein 10; assay: displacers of TR3 peptide from Bcl-B, primary screen, selectivity assay for Bfl-1 inhibitor project, biochemical, fluorescence polarization, FITC-TR3 peptide (AID 748);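 note: fluorescence polarization from a fluorescein-labelled TR3 peptide binding purified Bcl-B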
[6] = target: T3, Heat shock 70 kDa protein 1A; assay: Hsp70 inhibitors, probe displacement, primary screen, biochemical, fluorescence polarization (AID 583)
[7] = target: T4, Tyrosine-protein phosphatase non-receptor type 7 (Homo sapiens, UniProt P35236); assay: redox-dependent HePTP inhibition, mechanism study, biochemical, fluorescence (AID 2068); format: functional
T4 sequence (P35236 whole entry): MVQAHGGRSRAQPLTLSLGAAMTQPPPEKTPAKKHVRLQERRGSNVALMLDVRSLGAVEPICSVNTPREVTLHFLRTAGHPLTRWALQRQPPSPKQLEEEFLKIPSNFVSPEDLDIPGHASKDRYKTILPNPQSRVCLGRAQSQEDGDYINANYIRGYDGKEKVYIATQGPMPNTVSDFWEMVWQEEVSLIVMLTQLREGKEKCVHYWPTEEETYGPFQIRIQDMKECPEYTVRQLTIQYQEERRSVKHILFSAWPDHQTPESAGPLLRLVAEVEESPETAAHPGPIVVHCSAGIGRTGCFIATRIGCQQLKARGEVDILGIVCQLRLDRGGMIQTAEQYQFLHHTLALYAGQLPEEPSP

[8] = target: T5, Neuropeptide Y receptor type 1 (Homo sapiens, UniProt P25929); format: functional;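 note: HEK293 cells with a CNG channel challenged with NPY then isoproterenol; potency as antagonist that reverses NPY suppression of cAMP signal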
[9] = target: T6, Neuropeptide Y receptor type 2 (Homo sapiens, UniProt P49146); format: functional, cell-based;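 note: HEK293 cells expressing the receptor and a CNG channel; stimulus was NPY near EC95 followed by isoproterenol to raise cAMP; antagonist potency measured as restoring cAMP signal that NPY suppresses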
[10] = target: Potassium voltage-gated channel subfamily KQT member 2 (Rattus norvegicus, UniProt O88943, W236L); assay: KCNQ2 channel potentiators, dose response, mechanism study for KCNQ2 potentiator project, cell-based, automated electrophysiology (AID 2603); format: functional
[11] = target: T6, Neuropeptide Y receptor type 2; assay: NPY-Y2 antagonist potency, selectivity check, dose response, counter-screen for NPY-Y1 antagonist project, cell-based (AID 1278); format: functional
[12] = target: T5, Neuropeptide Y receptor type 1; assay: NPY-Y1 receptor antagonist potency, dose response, cell-based (AID 1277); format: functional
[13] = target: Potassium voltage-gated channel subfamily KQT member 2 (Rattus norvegicus, UniProt O88943); assay: KCNQ2 potassium channel inhibitors, dose response, cell-based, automated electrophysiology, set II, rat KCNQ2 (AID 588637); format: functional
[14] = HEp-2 cell cytotoxicity, dose response, cytotoxicity control for RSV inhibitor project, HTS (AID 2410); format: functional; conditions: human respiratory syncytial virus
[15] = Luminescence Cell-Based Dose Confirmation HTS to Identify Activators of 5'UTR Stem-Loop Driven Alpha-Synuclein mRNA Translation in H4 Neuroglioblastoma Cells. [Related pubchem assays: 1829 (Project Summary), 1814 (Primary HTS)]; format: functional
[16] = Luminescence Cell-Based Dose Response HTS to Identify Activators of Luciferase Translation or Activity in H4 […] Cells. [Related pubchem assays: 1829 (Project Summary), 1814 (Primary HTS)]; format: functional
[17] = tested on: H4; assay: Luminescence Cell-Based Dose Response HTS to Identify Activators of 5'UTR Stem-Loop Driven Prion Protein mRNA Translation in H4 Neuroglioblastoma Cells. [Related pubchem assays: 1829 (Project Summary), 1814 (Primary HTS)]; format: functional; conditions: Homo sapiens
[18] = tested on: Vero; assay: cells; format: functional, cell-based; conditions: Chlorocebus sabaeus
[19] = cells
[20] = target: T7, Leucine aminopeptidase (Plasmodium falciparum 3D7, UniProt Q8IL11); assay: P. falciparum M17LAP inhibitors, primary screen, biochemical, fluorogenic H-Leu-NHMec substrate, 1536-well (AID 1619); format: functional
T7 sequence (Q8IL11 whole entry): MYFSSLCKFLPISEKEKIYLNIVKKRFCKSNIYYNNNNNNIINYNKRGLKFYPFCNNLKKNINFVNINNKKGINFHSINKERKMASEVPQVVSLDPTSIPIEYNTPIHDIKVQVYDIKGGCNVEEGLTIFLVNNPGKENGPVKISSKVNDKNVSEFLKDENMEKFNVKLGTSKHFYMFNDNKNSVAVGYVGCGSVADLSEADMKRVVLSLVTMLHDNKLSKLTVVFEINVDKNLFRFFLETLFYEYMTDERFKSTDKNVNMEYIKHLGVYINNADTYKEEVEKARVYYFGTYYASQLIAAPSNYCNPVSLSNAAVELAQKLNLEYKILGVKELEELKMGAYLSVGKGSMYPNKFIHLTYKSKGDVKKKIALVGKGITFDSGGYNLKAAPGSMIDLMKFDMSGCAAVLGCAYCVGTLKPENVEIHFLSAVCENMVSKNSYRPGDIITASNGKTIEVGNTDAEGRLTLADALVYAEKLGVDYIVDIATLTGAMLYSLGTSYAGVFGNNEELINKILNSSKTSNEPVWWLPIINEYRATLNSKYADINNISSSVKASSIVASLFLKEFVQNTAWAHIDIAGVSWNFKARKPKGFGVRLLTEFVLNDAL

[21] = target: Aspartyl aminopeptidase (Plasmodium falciparum 3D7, UniProt Q8I2J3); assay: Counterscreen for inhibitors of M1 and M17 aminopeptidases: QFRET-based biochemical high throughput dose response assay for inhibitors of the Plasmodium falciparum M18 Aspartyl Aminopeptidase (PFM18AAP). [Related PubChem assays: 1619 (Screening assay (M17LAP inhibitors).), 1445 (Screening assay (M1AAP inhibitors).)]
[22] = target: Procathepsin L (Homo sapiens, UniProt P07711); assay: cathepsin L inhibitors, dose response, counter-screen for M1/M17 aminopeptidase inhibitor project, biochemical, QFRET, 1536-well (AID 2214)
[23] = target: T8, Short transient receptor potential channel 4 (Mus musculus, UniProt Q9QUQ5); assay: mouse TRPC4 channel inhibitors, dose response, cell-based, HEK293 TRPC4/mu-opioid, Fluo-4 calcium (AID 434942); format: functional;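 note: potency of inhibitors blocking the TRPC4 calcium response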
T8 sequence (Q9QUQ5 whole entry): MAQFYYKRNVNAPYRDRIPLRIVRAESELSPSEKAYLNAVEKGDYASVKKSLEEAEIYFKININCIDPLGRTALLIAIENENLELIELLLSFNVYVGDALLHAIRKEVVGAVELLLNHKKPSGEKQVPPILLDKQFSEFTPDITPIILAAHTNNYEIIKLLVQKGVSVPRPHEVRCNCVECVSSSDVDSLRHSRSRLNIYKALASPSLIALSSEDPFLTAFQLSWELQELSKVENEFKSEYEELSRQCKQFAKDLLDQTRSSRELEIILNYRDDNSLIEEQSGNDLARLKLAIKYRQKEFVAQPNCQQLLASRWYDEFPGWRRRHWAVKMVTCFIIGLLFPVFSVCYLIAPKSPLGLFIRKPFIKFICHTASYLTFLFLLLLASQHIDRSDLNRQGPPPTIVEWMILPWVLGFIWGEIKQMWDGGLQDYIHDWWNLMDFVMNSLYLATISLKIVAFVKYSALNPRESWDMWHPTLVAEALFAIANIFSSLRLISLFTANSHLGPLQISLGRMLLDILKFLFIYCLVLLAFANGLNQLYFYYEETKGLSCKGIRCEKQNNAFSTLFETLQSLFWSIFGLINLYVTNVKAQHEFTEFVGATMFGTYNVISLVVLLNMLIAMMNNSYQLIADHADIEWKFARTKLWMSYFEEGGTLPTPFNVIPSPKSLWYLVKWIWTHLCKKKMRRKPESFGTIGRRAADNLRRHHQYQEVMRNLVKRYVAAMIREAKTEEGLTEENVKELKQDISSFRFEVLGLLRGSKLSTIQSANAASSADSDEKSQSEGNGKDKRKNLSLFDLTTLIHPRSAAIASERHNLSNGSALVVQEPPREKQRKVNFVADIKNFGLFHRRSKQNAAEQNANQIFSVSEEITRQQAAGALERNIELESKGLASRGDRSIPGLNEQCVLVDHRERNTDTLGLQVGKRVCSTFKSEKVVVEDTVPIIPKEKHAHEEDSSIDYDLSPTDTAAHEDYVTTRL

[24] = NIH-3T3 fibroblast cytotoxicity, dose response, cytotoxicity control, cell-based, fluorescence, Alamar Blue, secondary assay (AID 2327); format: functional;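 note: NIH-3T3 mouse fibroblasts cultured with fluconazole at 8 µg/mL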
[25] = target: T9, Mannose-6-phosphate isomerase (Homo sapiens, UniProt P34949); assay: inhibitors of human PMI, primary screen, biochemical, fluorescence intensity, coupled assay (AID 1209)
T9 sequence (P34949 whole entry): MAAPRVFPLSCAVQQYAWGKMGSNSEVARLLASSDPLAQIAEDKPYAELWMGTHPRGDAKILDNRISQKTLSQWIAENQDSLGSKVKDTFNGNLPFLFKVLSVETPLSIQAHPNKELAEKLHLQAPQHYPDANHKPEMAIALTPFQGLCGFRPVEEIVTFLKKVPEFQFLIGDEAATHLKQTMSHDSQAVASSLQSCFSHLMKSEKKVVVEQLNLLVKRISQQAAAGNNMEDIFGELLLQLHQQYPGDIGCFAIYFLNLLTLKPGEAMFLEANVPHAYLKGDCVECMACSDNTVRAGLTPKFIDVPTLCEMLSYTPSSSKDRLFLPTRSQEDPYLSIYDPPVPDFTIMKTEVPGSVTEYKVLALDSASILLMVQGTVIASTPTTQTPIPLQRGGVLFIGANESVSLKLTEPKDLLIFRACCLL

[26] = target: T10, Protein Tat (Human immunodeficiency virus type 1 group M subtype B (isolate HXB2)(HIV-1), UniProt P04608); format: functional;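 note: tat binding to TAR RNA read out by fluorescence polarization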
T10 sequence (P04608 whole entry): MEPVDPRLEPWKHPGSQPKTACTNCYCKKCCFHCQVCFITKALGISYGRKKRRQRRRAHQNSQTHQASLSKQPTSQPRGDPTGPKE

[27] = THP-1 cell cytotoxicity, dose response, cytotoxicity control for Vif-APOBEC3G degradation inhibitor project, THP-1 cells (AID 1117359); format: functional; conditions: Human immunodeficiency virus 1, THP-1
[28] = target: Sphingosine 1-phosphate receptor 2 (Homo sapiens, UniProt O95136); assay: Dose Response Cell Based Assay for Agonists of the S1P2 Receptor of Purchased Analogues. [Related pubchem assays: 729, 843, 854, 736 ]; format: functional

## Cc1ccc(C)n1-c1ccc(OCC(=O)O)cc1
[1]
  EC50: 8.75 µM (active)
[2]
  IC50: 36 µM (inactive)

## COc1ccc(C(=O)Nc2nc(O)c3cc(OC)c(OC)cc3n2)cc1
[3]
  EC50: 13.3 µM (not active)

## O=C(Nc1ccc2nc(-c3ccco3)c(-c3ccco3)nc2c1)N1CCCCCC1
[4]
  IC50: > 100 µM (not active)
[5]
  IC50: 0.725 µM (active)
[6]
  IC50: > 100 µM (not active)
[7]
  IC50: 1.03 µM (active) and 1.85 µM (active)

## COc1ccc(NC(=O)CSc2nc3ccccc3c(=O)n2CCCN2CCCCC2)c(OC)c1
[8]
  IC50: 7.62 µM (active)
[9]
  IC50: 14.7 µM (not active)

## CCCCC1CCC(C(=O)NCC(c2ccco2)N2CCOCC2)CC1 (stereo not drawn)
[10]
  EC50: 0.92 µM (active)

## CCCCOc1cccc(OCCCC)c1C(=O)Nc1cc(C)on1
[11]
  IC50: > 35 µM (not active)
[12]
  IC50: > 35 µM (not active)
[13]
  IC50: 4.03 µM (active)

## O=C(Nc1ccc(N2CCCCC2)c(Cl)c1)c1cccnc1
[14]
  CC50: 15.4 µM (active)
[15]
  EC50: > 120 µM (not active)
[16]
  EC50: 6.12 µM (active)
[17]
  EC50: > 120 µM (not active)
[18]
  IC50: 8.75 µM (active)
[19]
  IC50: 13.6 µM (active)

## N#Cc1c(NC(=O)C2CC(Cl)=CCC2C(=O)O)sc2c1CCCCC2 (stereo not drawn)
[20]
  IC50: < 1 µM (active)
[21]
  IC50: > 73.5 µM (not active)
[22]
  IC50: > 59.6 µM (not active)
[23]
  EC50: 4.73 µM (active)

## COc1ccc(OC)c(Nc2nc(-c3ccc(O)c(O)c3)cs2)c1
[24]
  EC50: 6.89 µM (active)
[25]
  IC50: > 50 µM (not active)
[26]
  IC50: > 100 µM (inconclusive)
[27]
  CC50: 9.32 µM (active)

## CC(=O)Nc1ccc(SCC(=O)c2cc(C)n(Cc3ccccc3)c2C)cc1
[28]
  EC50: > 30 µM (not active)
